Test results as given in patent publication US20210380930A1, “METHODS, APPARATUS AND KITS FOR BACTERIAL CELL LYSIS” (TECHNISCHE UNIVERSITÄT WIEN, priority 2018, published 2021).
Like-named read-outs stand apart in the source and are kept apart here.

Test system: Enterococcus faecalis type strain NCTC 775
Test: Cell lysis experiments with ILs, released DNA quantified by ENT-qPCR
Assay type: cell-based

SMILES	23S rRNA gene copies in 2.5 μl of the DNA extracts	cell lysis efficiency with varying IL concentrations (IL from 90% (w/v) to 10% (w/v), same extraction procedure)	cell lysis efficiency with varying IL concentrations
CC(=O)[O-].CCn1cc[n+](C)c1 [[C2mim]OAc, 1-Ethyl-3-methylimidazollum acetate]	~6.48±0.02	almost steadily decreased with its respective concentration	
CCCCCC(=O)[O-].C[N+](C)(C)CCO [[Cho]Hex, Choline hexanoate]	~6.49±0.11		slightly improved towards a concentration of 50% (w/v), only decreasing with lower concentrations of 30% (w/v) and 10% (w/v)
